Assays:
[1] = target: human adenosine A2A receptors (Homo sapiens, UniProt P29274); assay: Binding affinities at hA2A receptors, displacement of [3H]-CGS 21680
Source text: Adenosine Receptor Binding Binding Affinities at hA2A Receptors

Parkinsonian patients = details: cited from earlier work
cataleptic responses = details: cited from earlier work

Sequence of human adenosine A2A receptors (P29274 whole entry): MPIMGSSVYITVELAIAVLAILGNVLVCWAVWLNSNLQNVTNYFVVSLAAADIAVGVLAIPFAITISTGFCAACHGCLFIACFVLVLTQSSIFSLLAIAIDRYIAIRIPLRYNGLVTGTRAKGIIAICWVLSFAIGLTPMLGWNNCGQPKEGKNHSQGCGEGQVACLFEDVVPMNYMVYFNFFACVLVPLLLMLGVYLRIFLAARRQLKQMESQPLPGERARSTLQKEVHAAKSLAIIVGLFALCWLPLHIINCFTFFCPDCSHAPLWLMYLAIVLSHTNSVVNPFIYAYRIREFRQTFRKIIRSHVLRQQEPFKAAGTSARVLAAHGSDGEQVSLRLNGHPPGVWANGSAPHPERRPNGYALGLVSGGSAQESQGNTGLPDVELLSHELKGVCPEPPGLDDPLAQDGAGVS

Structure (SMILES)	Ki [1]	melting point	other results
Nc1nc(-c2ccco2)c2nnn(Cc3ccc(Cl)cc3N)c2n1 [Example 120, 3-(2-amino-4-chlorobenzyl)-7-(2-furyl)-3H-[1,2,3]triazolo[4,5-d]pyrimidine-5-amine]	1 nM	211.4 to 211.6 °C	–
Nc1cccc(Cn2nnc3c(-c4ccco4)nc(N)nc32)c1 [Example 5, 3-(3-Aminobenzyl)-7-(2-furyl)-3H-[1,2,3]triazolo[4,5-d]pyrimidine-5-amine]	3 nM	259.8 to 259.9 °C	–
Nc1nc(-c2ccco2)c2nnn(Cc3cccc(F)c3F)c2n1 [Example 57, 3-(2,3-difluorobenzyl)-7-(2-furyl)-3H-[1,2,3]triazolo[4,5-d]pyrimidine-5-amine]	2 nM	188.8 to 188.9 °C	–
Nc1nc(-c2ccco2)c2nnn(Cc3c(F)cc(O)cc3F)c2n1 [Example 149, 3-(2,6-difluoro-4-hydroxybenzyl)-7-(2-furyl)-3H-[1,2,3]triazolo[4,5-d]pyrimidine-5-amine]	1 nM	–	–
COc1cccc(Cn2nnc3c(-c4ccco4)nc(N)nc32)c1 [Example 11, 7-(2-furyl)-3-(3-methoxybenzyl)-3H-[1,2,3]triazolo[4,5-d]pyrimidine-5-amine]	2 nM	–	–
Nc1nc(-c2ccco2)c2nnn(Cc3ccc(Cl)s3)c2n1 [Example 8, 3-(5-chloro-2-thienyl)methyl-7-(2-furyl)-3H-[1,2,3]triazolo[4,5-d]pyrimidine-5-amine]	3 nM	–	–
Nc1nc(-c2ccco2)c2nnn(Cc3ccc4ccccc4n3)c2n1 [Example 188, 7-(2-furyl)-3-(quinolin-2-ylmethyl)-3H-[1,2,3]triazolo[4,5-d]pyrimidine-5-amine]	1 nM	228.9 to 229.9 °C	–
Nc1nc(-c2ccco2)c2nnn(Cc3cccc4cccnc34)c2n1 [Example 107, 7-(2-furyl)-3-(8-quinolinylmethyl)-3H-[1,2,3]triazolo[4,5-d]pyrimidine-5-amine]	2 nM	276.4 to 277.4 °C	–
Cn1c(=O)c2[nH]cnc2n(C)c1=O [Theophylline, theophylline]	–	–	mean objective disability scores (Parkinsonian patients; 15 Parkinsonian patients, up to 12 weeks, 150 mg/day oral): significant improvements; patients reporting moderate or marked subjective improvement (Parkinsonian patients; of 15 Parkinsonian patients, up to 12 weeks, 150 mg/day oral): 11; serum theophylline levels (Parkinsonian patients; slow release oral preparation 150 mg/day, after one week, Parkinsonian patients): 4.44 mg/L
Nc1nc(-c2ccco2)c2nnn(Cc3ccccc3N)c2n1 [Example 13, 3-(2-aminobenzyl)-7-(2-furyl)-3H-[1,2,3]triazolo[4,5-d]pyrimidine-5-amine]	2 nM	–	–
CN(C)Cc1cccc(Cn2nnc3c(-c4ccco4)nc(N)nc32)n1 [Example 233, 3-(6-(N,N-dimethylamino)methyl-2-pyridylmethyl)-7-(2-furyl)-3H-[1,2,3]triazolo[4,5-d]pyrimidine-5-amine]	4 nM	219.7 to 222.3 °C	–
Nc1nc(-c2ccco2)c2nnn(Cc3ccc(O)cc3)c2n1 [Example 221, 3-(4-Hydroxybenzyl)-7-(2-furyl)-3H-[1,2,3]triazolo[4,5-d]pyrimidine-5-amine]	2 nM	–	–
Cc1cccc(Cn2nnc3c(-c4ccco4)nc(N)nc32)c1[N+](=O)[O-] [Example 92, 7-(2-furyl)-3-(3-methyl-2-nitrobenzyl)-3H-[1,2,3]triazolo[4,5-d]pyrimidine-5-amine]	2 nM	267.9 to 268.5 °C	–
Nc1nc(-c2ccco2)c2nnn(Cc3cccc([N+](=O)[O-])c3)c2n1 [Example 4, 7-(2-furyl)-3-(3-nitrobenzyl)-3H-[1,2,3]triazolo[4,5-d]pyrimidine-5-amine]	4 nM	–	–
Nc1nc(-c2ccco2)c2nnn(Cc3ccc4c(c3)OCO4)c2n1 [Example 209, 7-(2-furyl)-3-(3,4-methylenedioxybenzyl)-3H-[1,2,3]triazolo[4,5-d]pyrimidine-5-amine]	1 nM	> 250 °C (dec.)	–
C=Cc1cccc(Cn2nnc3c(-c4ccco4)nc(N)nc32)n1 [Example 202, 7-(2-furyl)-3-(6-vinyl-2-pyridylmethyl)-3H-[1,2,3]triazolo[4,5-d]pyrimidine-5-amine]	1 nM	210.5 to 211.6 °C	–
Nc1nc(-c2ccco2)c2nnn(Cc3ccccc3F)c2n1 [Example 3, 3-(2-Fluorobenzyl)-7-(2-furyl)-3H-[1,2,3]triazolo[4,5-d]pyrimidine-5-amine]	3 nM	–	–
COc1cc(F)c(Cn2nnc3c(-c4ccco4)nc(N)nc32)c(F)c1 [Example 156, 3-(2,6-Difluoro-4-methoxybenzyl)-7-(2-furyl)-3H-[1,2,3]triazolol[4,5-d]pyrimidine-5-amine]	2 nM	274.2 to 274.3 °C	–
N#Cc1cccc(Cn2nnc3c(-c4ccco4)nc(N)nc32)c1 [Example 15, 3-(3-cyanobenzyl)-7-(2-furyl)-3H-[1,2,3]triazolo[4,5-d]pyrimidine-5-amine]	4 nM	–	–
Nc1nc(-c2ccco2)c2nnn(Cc3c(F)cccc3F)c2n1 [Example 41, 3-(2,6-difluorobenzyl)-7-(2-furyl)-3H-[1,2,3]triazolo[4,5-d]pyrimidine-5-amine]	2 nM	213.8 to 213.9 °C	–
CCCn1c(=O)c2c(nc(/C=C/c3ccc(OC)c(OC)c3)n2C)n(CCC)c1=O [KF 17837, (E)-8-(3,4-dimethoxystyryl)-1,3-dipropyl-7-methylxanthine]	–	–	anticataleptic effects of a subthreshold dose of L-DOPA plus benserazide (cataleptic responses; in vivo): potentiated; catalepsy induced by haloperidol and reserpine (cataleptic responses; in vivo): reduced; cataleptic responses induced by intracerebroventricular CGS 21680 (cataleptic responses; oral administration): significantly ameliorated
Nc1nc(-c2ccco2)c2nnn(Cc3cccc(NCc4ccccn4)c3)c2n1 [Example 255, 3-(3-(2-pyridylmethylamino)benzyl)-7-(2-furyl)-3H-[1,2,3]triazolo[4,5-d]pyrimidine-5-amine]	4 nM	184.5 to 184.6 °C	–

Reference: patent US7589097B2, “Triazol[4,5-d] pyramidine derivatives and their use as purinergic receptor antagonists” (Vernalis Research Limited, priority 2001, dated 2009)
